Where two headings read alike, the source gives them in different places.
Key:
[1] = system: histone-mediated cytotoxicity for HMEC-1; assay: Histone-mediated cytotoxicity assay (PI/Calcein-AM flow cytometry); assay type: cell-based
Protocol: Histone-mediated cytotoxicity assays. To determine the cytotoxicity of calf thymus histones (Sigma-Aldrich), various concentrations of histones (100-800 μg ml^−1) were added to suspensions of HMEC-1 or HUVEC (1×10^6 ml^−1) in 96 well plates and incubated for 1 h at 37° C. Cells were then incubated for 5 min at 37° C. with propidium iodide (PI; 2.5 μg ml^−1) (ThermoFisher Scientific), to detect dead cells, and Calcein-AM (0.04 μM) (ThermoFisher Scientific), to detect viable cells, placed on ice and the percentage of dead and viable cells determined by flow cytometry using gating strategies. In inhibition assays, HMEC-1 were incubated with histones (400 μg ml^−1) for 1 h at 37° C. in the presence of different concentrations of compounds (12.5-400 μg ml^−1) prior to the addition of PI and Calcein-AM. HMEC-1 cytotoxicity at each compound concentration was then determined based on the formula:
[formula] and the IC50 value for each polyanion then determined based on the line of best fit (nonlinear regression analysis) using Prism Software (Graphpad Software). In all assays MTS (IC50 30 μg ml^−1) was included as a standard to compensate for experimental variation, with data being adjusted in each assay to MTS having an IC50 of 30 μg ml^−1.

histones = assay: In-vivo histone toxicity assay; settings: mice; for Protection from histone-induced liver damage, generalised tissue injury and kidney failure (circulating ALT, LDH, creatinine): compound i.p. 10 min prior to i.v. histones 50 mg kg^−1, blood 4 h post-histones, concentration-dependent
Protocol: In-vivo histone toxicity assays. BALB/c female mice (5-6 weeks of age), that are more prone to histone-induced anemia and easier to inject i.v. at this young age than C57BL/6 mice, were injected i.p. with test compounds at concentrations indicated 10 min prior to i.v. injection of histones (50 mg kg^−1) in phosphate buffered saline. Retro-orbital bleeds were performed with glass Pasteur pipettes 10 min after histone injection and collected blood added to acid citrate dextrose (ACD), the 10 min blood sample being subjected to hematologic analyses for platelet and erythrocyte content using an ADVIA 2120i Hematology Analyzer. Spleens were also harvested at 10 min post-histone injection and splenic hemoglobin content quantified using a hemoglobin assay kit (Sigma-Aldrich). In the case of 4 h blood samples, male C57/BL/6 mice (6-8 weeks of age) were injected with test compounds and histones as above and plasma isolated and stored frozen for subsequent biochemical testing, with markers for liver (alanine aminotransferase, ALT), kidney (creatinine, Crea) and general tissue (lactate dehydrogenase, LDH) damage being determined by the Department of Pathology, The Canberra Hospital.

[2] = system: histone-induced platelet aggregation; assay: Histone-induced aggregation of isolated platelets; assay type: cell-based, human; settings: histones 150 μg/mL, isolated platelets, FIG. 4b
Protocol: In vitro platelet aggregation and degranulation assays. For aggregation studies platelets were isolated from human whole blood collected into Na-citrate vacutainers through 2-step centrifugation at room temperature (200×g for 20 min then the platelet-rich plasma 800×g for 15 min), the platelet pellet resuspended in Hank's balanced salt solution containing calcium and magnesium and histones added and incubated in the presence/absence of compounds at the concentrations of each as indicated. Samples were assessed for degree of platelet aggregation after 15 min exposure to histones by flow cytometry using the characteristic log FSC versus log SSC identification of platelets, with increases in the geometric mean of log FSC indicative of platelet aggregation.

[3] = system: histone-induced erythrocyte rigidity; assay: Erythrocyte deformability, passage through artificial spleen; assay type: cell-based, human; settings: histones 400 μg ml^−1, compounds 100 and 200 μg ml^−1, FIG. 3d
Protocol: Human erythrocytes (RBC) were incubated for 1 h at 37° C. alone (‘Saline’ control) or in the presence of histones (400 μg ml^−1) with or without mCBS (200 μg ml^−1). a, Percentage of RBC aggregation measured by flow cytometry based on forward (FSC) and side (SSC) scatter parameters and an appropriate gating strategy to discriminate aggregated from normal (non-aggregated) RBC. b, Scanning electron micrographs depicting level of RBC aggregation at low and high magnification following the three treatments depicted in (a). c, Concentration dependent inhibition of histone-mediated RBC aggregation by mCBS and MTS, in this case RBC aggregation being calculated by flow cytometry as fold increase in RBC auto-fluorescence relative to RBC in the absence of histones. The fold increase values also provide an estimate of the number of RBC in each aggregate. d, Retention of RBC in an artificial spleen that measures RBC deformability. […]
In vitro erythrocyte microscopy, aggregation, fragility and deformability assays. […] Similarly, erythrocyte fragility induced by histones, in the presence or absence of inhibitors, was quantified using a sheer stress assay that we developed recently (Kordbacheh, F., O'Meara, C. H., Coupland, L. A., Lelliott, P. M. & Parish, C. R. Extracellular histones induce erythrocyte fragility and anemia. Blood 130, 2884-2888 (2017)). […]

[4] = system: anti-proliferative effect of histones on HMEC-1; assay: HMEC-1 proliferation (3H-thymidine) after histone exposure; assay type: cell-based, human; settings: compounds 100 μg ml^−1, histones 400 μg ml^−1, FIG. 8b
[5] = system: histone-mediated RBC aggregation; assay: Histone-mediated erythrocyte aggregation (flow cytometry, scanning EM); assay type: cell-based, human
Protocol: Human erythrocytes (RBC) were incubated for 1 h at 37° C. alone (‘Saline’ control) or in the presence of histones (400 μg ml^−1) with or without mCBS (200 μg ml^−1). a, Percentage of RBC aggregation measured by flow cytometry based on forward (FSC) and side (SSC) scatter parameters and an appropriate gating strategy to discriminate aggregated from normal (non-aggregated) RBC. b, Scanning electron micrographs depicting level of RBC aggregation at low and high magnification following the three treatments depicted in (a). c, Concentration dependent inhibition of histone-mediated RBC aggregation by mCBS and MTS, in this case RBC aggregation being calculated by flow cytometry as fold increase in RBC auto-fluorescence relative to RBC in the absence of histones. The fold increase values also provide an estimate of the number of RBC in each aggregate. d, Retention of RBC in an artificial spleen that measures RBC deformability. RBC were incubated with increasing concentrations of histones for 1 h and, at the highest concentration used (400 μg ml^−1), also incubated with either mCBS or MTS (100 and 200 μg ml^−1), prior to passage through the artificial spleen. Data are mean±s.e.m. (n=3 biological replicates). ***P<0.001, ****P<0.0001 (one way ANOVA with Dunnett's multiple comparisons test).
In vitro erythrocyte microscopy, aggregation, fragility and deformability assays. […] J Biol Chem 289, 19531-19537 (2014)). Similarly, erythrocyte fragility induced by histones, in the presence or absence of inhibitors, was quantified using a sheer stress assay that we developed recently (Kordbacheh, F., O'Meara, C. H., Coupland, L. A., Lelliott, P. M. & Parish, C. R. Extracellular histones induce erythrocyte fragility and anemia. Blood 130, 2884-2888 (2017)). Finally, the reduced deformability of erythrocytes in the presence of histones and the effect of inhibitors on this process was assessed by measuring the passage of erythrocytes through an artificial human spleen (Kordbacheh, F., O'Meara, C. H., Coupland, L. A., Lelliott, P. M. & Parish, C. R. Extracellular histones induce erythrocyte fragility and anemia. Blood 130, 2884-2888 (2017); and Deplaine, G. et al. The sensing of poorly deformable red blood cells by the human spleen can be mimicked in vitro. Blood 117, e88-95 (2011)).

[6] = Rat ischemia reperfusion tissue (skin) flap model; assay type: in vivo; settings: rat skin flap IRI, 50 mg kg^−1 i.p., 72 h, FIG. 7d
Excerpt: Rat ischemia reperfusion tissue flap model. The procedure employed is largely based on a previously described method (Bone, R. C. et al. Definitions for sepsis and organ failure and guidelines for the use of innovative therapies in sepsis. The ACCP/SCCM Consensus Conference Committee. American College of Chest Physicians/Society of Critical Care Medicine. Chest 101, 1644-1655 (1992)). Briefly, male Wistar rats were anaesthetized, locally depilated and a 3 cm by 6 cm fasciocutaneous flap was excised leaving the vascular pedicle intact. […] The clamp was removed 10 h post-application permitting returned blood flow to the flap. Test compounds (50 mg kg^−1) or saline were administered i.p. 5 min prior to clamp application and 5 min following its removal. The rats were monitored for a total experimental period of 72 h during which rats received additional compound or saline i.p. at 24 and 48 h post-op. The ‘Control No Clamp’ rats had the tissue flap excised and rubber placed underneath prior to re-suturing, however, the vessel was not clamped and they received saline at the same time points as the other rats. At the end of the experimental period the viability of the flaps was determined by the percentage of black necrotic or reddened areas versus pink viable areas. […]

O=S(=O)(O)OC[C@H]1OC(OS(=O)(=O)O)[C@H](OS(=O)(=O)O)[C@@H](OS(=O)(=O)O)[C@@H]1OS(=O)(=O)O (some centres unmarked) [glucose per-O-sulfate]
Inhibition of histone-mediated cytotoxicity for HMEC-1 (endothelial cells) [1]: little or no inhibitory activity

OC[C@H]1O[C@@H](O[C@H]2[C@H](O)[C@@H](O)[C@H](O)O[C@@H]2CO)[C@H](O)[C@@H](O)[C@@H]1O [CB]
Protection from histone-induced liver damage, generalised tissue injury and kidney failure (circulating ALT, LDH, creatinine) (histones; FIG. 6a): inactive | Inhibition of histone-induced platelet aggregation [2]: non-inhibitory

CO[C@@H]1O[C@H](COS(=O)(=O)O)[C@@H](OS(=O)(=O)O)[C@H](OS(=O)(=O)O)[C@H]1OS(=O)(=O)O [methyl β-glucoside per-O-sulfate]
Inhibition of histone-mediated cytotoxicity for HMEC-1 (endothelial cells) ([1]; compared with heparin, FIG. 2a): little or no inhibitory activity

β-O-methyl cellobioside sulfate [mCBS]
Ability of erythrocytes to passage through an artificial spleen [3]: totally restored | Neutralization of anti-proliferative effect of histones on HMEC-1 monolayers [4]: completely neutralized | Histone-induced thrombocytopenia and anaemia (histones; 100 mg kg^−1 i.p., 10 min post-histones, FIG. 6b): prevented | Relative potency in protecting from histone-induced tissue pathologies (histones; FIG. 6a): equally active | Protection from histone-induced liver damage, generalised tissue injury and kidney failure (circulating ALT, LDH, creatinine) (histones; FIG. 6a): protected | Prevention of histone-mediated RBC aggregation (auto-fluorescence) ([5]; histones 400 μg ml^−1, FIG. 3c): prevented aggregation in a concentration dependent manner | Inhibition of histone-induced erythrocyte aggregation (FSC/SSC) ([5]; histones 400 μg ml^−1, mCBS 200 μg ml^−1, 1 h 37° C., FIG. 3a, confirmed by scanning EM): completely inhibited | Inhibition of histone-induced platelet aggregation [2]: completely inhibited | Viable area of the skin flap [6]: consistently and significantly increased | Inhibition of histone-mediated cytotoxicity for HMEC-1 (endothelial cells) ([1]; compared with heparin, FIG. 2a): as effective as heparin
